Measurements: patent US8008088B2, “SMMR (small molecule metabolite reporters) for use as in vivo glucose biosensors” (Masimo Laboratories, Inc., priority 2003, dated 2011)
Like-named read-outs stand apart in the source and are kept apart here.

Key:
[1] = Fluorescence and absorption response of boronic acid reporters to glucose in buffer solution (in vitro); settings: for rise in fluorescence intensity on addition of glucose: glucose changed from zero to 300 mg/dL
[2] = Glucose response rate in stirred cuvette, pH 8 phosphate buffer; settings: 100 μL of 300 mg/dL glucose added; monitored every 15 seconds; ex 340 nm, em 440 nm
Protocol: Arg-327 unprotected batches were prepared. One batch was supplied as a yellow powder and the other as a concentrated solution in deuterated methanol. A small sample of these materials was taken and dissolved in 3 ml of pH 8 phosphate buffer. The fluorescence of these materials was excited at 340 nm and the emission monitored at 440 nm. The fluorescence was monitored every 15 seconds in a stirred cuvette. After about 3 minutes 100 μL of 300 mg/dL glucose in pH 8 buffer was added. […] Similar results were obtained for both samples.

PHK cells = test: In-vitro detection in PHK cells loaded with reporter, two-photon fluorescent imaging; assay type: cell-based; settings: reporter 50 micromolar; glucose increased to 300 mg/dl; EM 440 nm, excitation (2P) 705 nm
Protocol: PHK cells were loaded with AF-327d reporter, at 50 micromolar concentration, in buffer. Fluorescence was measured using a two-photon fluorescent imaging system at approximately EM 440 nm, and excitation at (2P) 705 nm. Pictures taken 10 minutes apart show a slight change in fluorescence intensity upon increasing the glucose concentration to 300 mg/dl in the cell buffer medium. This is seen clearly, as a 20% decrease in time course of fluorescence.

[3] = hydroxyl group at position 3; cited from earlier work
[4] = Absorption and emission spectra of fluorescein and BeXan (Table 4); assay type: physicochemical
Excerpt: The configuration of the dye is strongly influenced by the nature of the heteroatom substitution. The structure of the dye responsible for the absorption may be estimated by consideration of the photophysical properties of related compounds and calculations on them. For example comparison of fluorescein and BeXan type dyes are shown in FIGS. 21a and 21b, with structures shown in Schemes 11 and 12, respectively.

[5] = pH dependency of esculetin spectra (pKa determination); assay type: physicochemical
Excerpt: The intensity of the fluorescence varies with pH but not the emission wavelength. The absorption spectrum did change with pH, implying the molecule could be used ratiometrically to measure pH using one monitoring wavelength and two excitation wavelengths. The relevant spectra are shown here together with a plot of absorption ratio as a function of pH (FIG. 45).

[6] = protonated, first (high energy) band
[7] = protonated, second (low energy) band

Molecule: O=C(/C=C/c1ccc(B(O)O)cc1)c1cc2ccccc2oc1=O [AF-343]
- response to glucose in vitro (in words) [1]: No fluorescence or glucose effect

Molecule: O=C(Nc1ccc2c(C(F)(F)F)cc(=O)oc2c1)c1ccc(B(O)O)cc1 [AF-327d]
- glucose response rate (fluorescence versus time) [2]: increased immediately
- fluorescence emission (em) [1]: 440 nm
- fluorescence excitation (ex) [1]: 340 nm
- long wavelength absorption maximum [1]: 333 nm
- response to glucose in vitro (in words) [1]: stronger response to glucose than other published compounds
- change of absorption spectrum at the excitation wavelength ([1]; as a function of glucose concentration): less than 10%
- rise in fluorescence intensity on addition of glucose [1]: 60%
- Emission Wavelength ([1]; with and without added glucose at pH=7): 440 nm
- decrease in time course of fluorescence (PHK cells): 20%

Molecule: O=C(Nc1ccc([N+](=O)[O-])cc1)c1ccc(B(O)O)cc1 [AF-339]
- response to glucose in vitro (in words) [1]: weaker than AF-327

Molecule: O=C(Nc1ccc2oc(=O)c3ccccc3c2c1)c1ccc(B(O)O)cc1 [AF-345]
- fluorescence emission (em) [1]: 435 nm
- fluorescence excitation (ex) [1]: 330 nm
- rise in fluorescence intensity on addition of glucose [1]: 30%

Molecule: fluorescein
- pKa [3]: 6.4
- Difference in energy of protonated absorption bands [4]: 3.6 kcal/mol
- Stokes shift for deprotonated bands [4]: 4.1 kcal/mol
- Stokes shift for protonated bands [4]: 3.8 kcal/mol
- Band position relative to the high-energy protonated absorption band, Absorption ([4]; Deprotonated band): 5.7 kcal/mol
- Band position relative to the high-energy protonated absorption band, Emission ([4]; Deprotonated band): 9.8 kcal/mol
- Band position relative to the high-energy protonated absorption band, Absorption ([4]; High energy protonated band): 0 kcal/mol
- Band position relative to the high-energy protonated absorption band, Emission ([4]; High energy protonated band): 7.4 kcal/mol
- Band position relative to the high-energy protonated absorption band, Absorption ([4]; Low energy protonated band): 3.6 kcal/mol
- Band position relative to the high-energy protonated absorption band, Emission ([4]; Low energy protonated band): 9.9 kcal/mol
- Absorption Energy ([4]; deprotonated): 57.1 kcal/mol
- Absorption Wavelength ([4]; deprotonated): 501 nm
- Emission Energy ([4]; deprotonated): 53 kcal/mol
- Emission Wavelength ([4]; deprotonated): 540 nm
- Absorption Energy [4, 6]: 62.8 kcal/mol
- Absorption Wavelength [4, 6]: 455 nm
- Emission Energy [4, 6]: 55.4 kcal/mol
- Emission Wavelength [4, 6]: 516 nm
- Absorption Energy [4, 7]: 59.2 kcal/mol
- Absorption Wavelength [4, 7]: 483 nm
- Emission Energy [4, 7]: 52.9 kcal/mol
- Emission Wavelength [4, 7]: 541 nm

Molecule: O=c1ccc2cc(O)c(O)cc2o1 [esculetin, 6,7 dihydroxycoumarin]
- pKa [5]: 7.5
